According to publication PMC4823954, “From fighting depression to conquering tumors: a novel tricyclic thiazepine compound as a tubulin polymerization inhibitor” (Cell Death & Disease, 2016):

What was measured:
Experiment in all cases: KINOMEscan
Assay type in all cases: binding
Details in all cases: read-out: % Ctrl
CSNK2A1 = target: T1, CSNK2A1 (Homo sapiens, UniProt P68400)
T1 construct: purchased DiscoveRx KINOMEscan
Outline: (§1)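 Competition binding panel of 442 non-mutant kinases: test compound at 5 and 10 μM competed with an active-site-directed ligand for 1 h with shaking. Bound kinase was eluted with 0.5 μM ligand and quantified by qPCR; %Ctrl = (compound − positive control)/(DMSO − positive control) × 100, lower meaning tighter binding.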

ERK5 = target: T2, ERK5 (Homo sapiens, UniProt Q13164)
T2 construct: purchased DiscoveRx KINOMEscan
Outline: as §1

CDK9 = target: T3, CDK9 (Homo sapiens, UniProt P50750)
T3 construct: purchased DiscoveRx KINOMEscan
Outline: as §1

HIPK1 = target: T4, HIPK1 (Homo sapiens, UniProt Q86Z02)
T4 construct: purchased DiscoveRx KINOMEscan
Outline: as §1

OSR1 = target: T5, OSR1 (Homo sapiens, UniProt O95747)
T5 construct: purchased DiscoveRx KINOMEscan
T5 sequence (O95747 whole entry): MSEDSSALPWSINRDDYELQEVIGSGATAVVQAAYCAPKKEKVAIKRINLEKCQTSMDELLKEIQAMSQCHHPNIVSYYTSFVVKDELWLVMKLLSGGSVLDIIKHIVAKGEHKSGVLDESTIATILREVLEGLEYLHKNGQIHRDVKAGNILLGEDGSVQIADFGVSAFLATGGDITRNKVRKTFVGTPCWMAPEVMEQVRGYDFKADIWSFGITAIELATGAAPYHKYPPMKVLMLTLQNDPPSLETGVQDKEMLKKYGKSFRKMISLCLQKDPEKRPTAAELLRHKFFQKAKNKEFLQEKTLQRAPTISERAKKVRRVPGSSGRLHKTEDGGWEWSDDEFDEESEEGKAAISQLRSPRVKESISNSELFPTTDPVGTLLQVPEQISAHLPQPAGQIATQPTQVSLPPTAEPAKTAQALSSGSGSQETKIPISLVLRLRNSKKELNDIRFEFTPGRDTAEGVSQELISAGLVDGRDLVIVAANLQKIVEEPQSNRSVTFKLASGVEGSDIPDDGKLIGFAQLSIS
Outline: as §1

PFTAIRE2 = target: T6, PFTAIRE2 (Homo sapiens, UniProt Q96Q40)
T6 construct: purchased DiscoveRx KINOMEscan
T6 sequence (Q96Q40 whole entry): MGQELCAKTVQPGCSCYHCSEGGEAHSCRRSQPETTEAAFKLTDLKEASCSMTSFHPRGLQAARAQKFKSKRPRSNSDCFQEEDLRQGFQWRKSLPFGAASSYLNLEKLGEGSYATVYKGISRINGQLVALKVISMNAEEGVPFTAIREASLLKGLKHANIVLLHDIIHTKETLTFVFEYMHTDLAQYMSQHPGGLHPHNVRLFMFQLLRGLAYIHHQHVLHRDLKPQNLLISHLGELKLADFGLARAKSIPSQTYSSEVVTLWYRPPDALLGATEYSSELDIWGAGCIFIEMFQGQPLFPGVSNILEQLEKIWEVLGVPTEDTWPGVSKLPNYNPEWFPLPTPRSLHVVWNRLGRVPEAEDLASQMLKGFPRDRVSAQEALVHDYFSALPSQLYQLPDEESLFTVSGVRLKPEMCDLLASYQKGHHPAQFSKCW
Outline: as §1

EPHA2 = target: T7, EPHA2 (Homo sapiens, UniProt P29317)
T7 construct: purchased DiscoveRx KINOMEscan
Outline: as §1

SIK2 = target: T8, SIK2 (Homo sapiens, UniProt Q9H0K1)
T8 construct: purchased DiscoveRx KINOMEscan
Outline: as §1

IKK-alpha = target: T9, IKK-alpha (Homo sapiens, UniProt O15111)
T9 construct: purchased DiscoveRx KINOMEscan
Outline: as §1

MEK1 = target: T10, MEK1 (Homo sapiens, UniProt Q02750)
T10 construct: purchased DiscoveRx KINOMEscan
Outline: as §1

ZAP70 = target: T11, ZAP70 (Homo sapiens, UniProt P43403)
T11 construct: purchased DiscoveRx KINOMEscan
Outline: as §1

CSNK1D = target: T12, CSNK1D (Homo sapiens, UniProt P48730)
T12 construct: purchased DiscoveRx KINOMEscan
Outline: as §1

[1] = target: T13, ABL1(T315I)-phosphorylated (Homo sapiens, UniProt P00519, T315I)
T13 construct: purchased DiscoveRx KINOMEscan

EPHA6 = target: T14, EPHA6 (Homo sapiens, UniProt Q9UF33)
T14 construct: purchased DiscoveRx KINOMEscan
Outline: as §1

YANK3 = target: T15, YANK3 (Homo sapiens, UniProt Q86UX6)
T15 construct: purchased DiscoveRx KINOMEscan
Outline: as §1

AKT3 = target: T16, AKT3 (Homo sapiens, UniProt Q9Y243)
T16 construct: purchased DiscoveRx KINOMEscan
Outline: as §1

FGFR4 = target: T17, FGFR4 (Homo sapiens, UniProt P22455)
T17 construct: purchased DiscoveRx KINOMEscan
Outline: as §1

SgK110 = target: T18, SgK110 (Homo sapiens, UniProt P0C264)
T18 construct: purchased DiscoveRx KINOMEscan
Outline: as §1

RAF1 = target: T19, RAF1 (Homo sapiens, UniProt P04049)
T19 construct: purchased DiscoveRx KINOMEscan
T19 sequence (P04049 whole entry): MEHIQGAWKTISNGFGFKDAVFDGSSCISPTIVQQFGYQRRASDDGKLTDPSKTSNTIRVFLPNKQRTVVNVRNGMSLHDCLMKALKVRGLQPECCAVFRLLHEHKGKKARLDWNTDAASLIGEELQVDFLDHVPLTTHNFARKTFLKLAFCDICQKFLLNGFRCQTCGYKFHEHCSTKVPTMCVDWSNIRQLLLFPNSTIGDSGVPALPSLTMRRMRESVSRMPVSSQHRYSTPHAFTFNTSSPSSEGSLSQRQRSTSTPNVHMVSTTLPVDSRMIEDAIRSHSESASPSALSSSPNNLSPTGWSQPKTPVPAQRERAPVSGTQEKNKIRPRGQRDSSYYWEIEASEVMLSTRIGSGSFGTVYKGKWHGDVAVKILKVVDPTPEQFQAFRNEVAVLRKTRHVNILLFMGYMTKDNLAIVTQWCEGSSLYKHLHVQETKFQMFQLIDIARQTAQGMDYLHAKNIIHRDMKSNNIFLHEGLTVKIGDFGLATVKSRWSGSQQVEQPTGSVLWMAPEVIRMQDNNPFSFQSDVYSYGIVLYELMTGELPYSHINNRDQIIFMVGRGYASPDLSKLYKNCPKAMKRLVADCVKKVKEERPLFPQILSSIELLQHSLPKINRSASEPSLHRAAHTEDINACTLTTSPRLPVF
Outline: as §1

TNIK = target: T20, TNIK (Homo sapiens, UniProt Q9UKE5)
T20 construct: purchased DiscoveRx KINOMEscan
T20 sequence (Q9UKE5 whole entry): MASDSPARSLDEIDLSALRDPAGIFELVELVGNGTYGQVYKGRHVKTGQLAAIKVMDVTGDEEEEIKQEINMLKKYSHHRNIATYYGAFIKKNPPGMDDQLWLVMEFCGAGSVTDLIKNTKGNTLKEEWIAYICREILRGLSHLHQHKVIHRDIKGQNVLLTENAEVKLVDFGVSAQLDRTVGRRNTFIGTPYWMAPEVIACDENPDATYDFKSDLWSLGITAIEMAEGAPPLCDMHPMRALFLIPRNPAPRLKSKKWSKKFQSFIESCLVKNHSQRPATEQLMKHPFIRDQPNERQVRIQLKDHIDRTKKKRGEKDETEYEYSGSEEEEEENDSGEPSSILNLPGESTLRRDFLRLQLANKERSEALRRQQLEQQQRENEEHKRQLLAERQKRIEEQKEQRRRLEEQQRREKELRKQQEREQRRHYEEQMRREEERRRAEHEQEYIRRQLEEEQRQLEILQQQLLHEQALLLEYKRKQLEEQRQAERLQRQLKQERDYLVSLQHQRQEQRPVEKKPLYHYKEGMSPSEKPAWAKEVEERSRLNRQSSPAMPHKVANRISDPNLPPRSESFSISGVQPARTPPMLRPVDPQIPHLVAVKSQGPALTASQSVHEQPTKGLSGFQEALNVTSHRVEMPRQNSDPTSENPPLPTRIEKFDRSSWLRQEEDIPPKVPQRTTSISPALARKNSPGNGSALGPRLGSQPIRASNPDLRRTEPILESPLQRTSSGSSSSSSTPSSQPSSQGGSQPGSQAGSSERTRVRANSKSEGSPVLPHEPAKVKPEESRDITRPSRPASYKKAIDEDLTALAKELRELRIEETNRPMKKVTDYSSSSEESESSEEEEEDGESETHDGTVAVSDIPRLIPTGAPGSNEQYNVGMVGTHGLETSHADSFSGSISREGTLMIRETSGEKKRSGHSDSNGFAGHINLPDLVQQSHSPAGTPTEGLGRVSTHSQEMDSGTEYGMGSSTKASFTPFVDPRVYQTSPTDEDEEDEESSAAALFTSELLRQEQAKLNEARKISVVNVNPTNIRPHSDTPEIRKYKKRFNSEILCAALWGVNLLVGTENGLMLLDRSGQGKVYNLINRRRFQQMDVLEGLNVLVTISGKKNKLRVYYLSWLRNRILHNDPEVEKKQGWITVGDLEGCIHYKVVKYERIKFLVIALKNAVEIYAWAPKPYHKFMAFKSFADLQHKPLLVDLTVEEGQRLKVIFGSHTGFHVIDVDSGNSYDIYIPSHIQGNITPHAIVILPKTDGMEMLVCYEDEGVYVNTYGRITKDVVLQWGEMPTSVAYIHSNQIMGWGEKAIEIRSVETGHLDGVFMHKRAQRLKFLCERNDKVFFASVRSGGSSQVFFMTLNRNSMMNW
Outline: as §1

TAOK1 = target: T21, TAOK1 (Homo sapiens, UniProt Q7L7X3)
T21 construct: purchased DiscoveRx KINOMEscan
Outline: as §1

TEC = target: T22, TEC (Homo sapiens, UniProt P42680)
T22 construct: purchased DiscoveRx KINOMEscan
T22 sequence (P42680 whole entry): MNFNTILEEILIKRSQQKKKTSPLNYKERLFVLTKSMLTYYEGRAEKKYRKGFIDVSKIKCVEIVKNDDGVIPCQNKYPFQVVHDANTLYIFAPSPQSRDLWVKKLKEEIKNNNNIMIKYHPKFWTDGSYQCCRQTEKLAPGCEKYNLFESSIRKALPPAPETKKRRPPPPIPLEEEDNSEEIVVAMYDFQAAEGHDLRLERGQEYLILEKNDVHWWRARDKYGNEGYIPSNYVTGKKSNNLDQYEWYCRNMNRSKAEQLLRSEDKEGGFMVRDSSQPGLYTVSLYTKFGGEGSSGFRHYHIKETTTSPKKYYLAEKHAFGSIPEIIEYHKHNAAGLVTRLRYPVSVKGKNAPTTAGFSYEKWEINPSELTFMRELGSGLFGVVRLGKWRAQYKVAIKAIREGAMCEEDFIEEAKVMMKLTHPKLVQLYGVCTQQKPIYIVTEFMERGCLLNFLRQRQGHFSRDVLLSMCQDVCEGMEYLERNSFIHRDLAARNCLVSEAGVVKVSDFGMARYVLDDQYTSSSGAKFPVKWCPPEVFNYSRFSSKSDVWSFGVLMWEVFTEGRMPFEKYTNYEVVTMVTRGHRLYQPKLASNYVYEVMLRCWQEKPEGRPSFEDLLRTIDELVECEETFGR
Outline: as §1

WEE2 = target: T23, WEE2 (Homo sapiens, UniProt P0C1S8)
T23 construct: purchased DiscoveRx KINOMEscan
Outline: as §1

CIT = target: T24, CIT (Homo sapiens, UniProt O14578)
T24 construct: purchased DiscoveRx KINOMEscan
Outline: as §1

PDPK1 = target: T25, PDPK1 (Homo sapiens, UniProt O15530)
T25 construct: purchased DiscoveRx KINOMEscan
Outline: as §1

PIK3CA(H1047L) = target: T26, PIK3CA(H1047L) (Homo sapiens, UniProt P42336, H1047L)
T26 construct: purchased DiscoveRx KINOMEscan
T26 sequence (P42336 whole entry H1047L): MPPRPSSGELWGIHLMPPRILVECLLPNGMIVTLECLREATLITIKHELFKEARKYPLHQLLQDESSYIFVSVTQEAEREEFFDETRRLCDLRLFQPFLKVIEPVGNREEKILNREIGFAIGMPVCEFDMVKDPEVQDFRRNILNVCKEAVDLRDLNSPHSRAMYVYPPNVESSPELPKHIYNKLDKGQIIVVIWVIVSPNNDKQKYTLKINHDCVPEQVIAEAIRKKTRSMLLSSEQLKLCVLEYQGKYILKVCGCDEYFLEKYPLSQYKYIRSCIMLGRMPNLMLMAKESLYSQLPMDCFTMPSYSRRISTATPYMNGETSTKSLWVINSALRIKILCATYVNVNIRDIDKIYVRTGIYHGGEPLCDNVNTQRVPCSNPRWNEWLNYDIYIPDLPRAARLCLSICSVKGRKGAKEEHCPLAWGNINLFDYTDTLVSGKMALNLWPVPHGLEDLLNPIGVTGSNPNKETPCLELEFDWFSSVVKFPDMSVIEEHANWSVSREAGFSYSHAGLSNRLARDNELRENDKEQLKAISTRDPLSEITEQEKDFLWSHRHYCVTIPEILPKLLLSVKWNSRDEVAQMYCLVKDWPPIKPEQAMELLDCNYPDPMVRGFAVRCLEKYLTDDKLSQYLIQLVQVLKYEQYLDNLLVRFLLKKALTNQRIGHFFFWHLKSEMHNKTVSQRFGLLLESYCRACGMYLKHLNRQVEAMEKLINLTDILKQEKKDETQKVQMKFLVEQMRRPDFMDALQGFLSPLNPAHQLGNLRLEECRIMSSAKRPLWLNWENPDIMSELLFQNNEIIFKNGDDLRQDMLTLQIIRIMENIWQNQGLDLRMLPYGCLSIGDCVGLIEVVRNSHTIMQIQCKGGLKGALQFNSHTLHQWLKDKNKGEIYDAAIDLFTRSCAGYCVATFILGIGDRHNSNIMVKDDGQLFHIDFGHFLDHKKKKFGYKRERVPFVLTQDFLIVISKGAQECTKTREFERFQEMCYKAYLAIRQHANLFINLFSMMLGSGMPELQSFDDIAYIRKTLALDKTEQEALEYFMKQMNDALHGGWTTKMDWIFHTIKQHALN

AURKB = target: T27, AURKB (Homo sapiens, UniProt Q96GD4)
T27 construct: purchased DiscoveRx KINOMEscan
T27 sequence (Q96GD4 whole entry): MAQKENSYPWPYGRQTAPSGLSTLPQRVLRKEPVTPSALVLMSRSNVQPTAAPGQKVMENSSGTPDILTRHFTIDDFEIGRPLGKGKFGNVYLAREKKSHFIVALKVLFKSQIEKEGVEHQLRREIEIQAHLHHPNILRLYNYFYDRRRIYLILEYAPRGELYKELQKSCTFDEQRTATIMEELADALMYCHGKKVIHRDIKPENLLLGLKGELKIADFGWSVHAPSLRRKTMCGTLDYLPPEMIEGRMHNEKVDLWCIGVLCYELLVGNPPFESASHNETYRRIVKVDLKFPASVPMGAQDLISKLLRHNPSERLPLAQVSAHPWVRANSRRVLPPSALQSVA
Outline: as §1

ZAK = target: T28, ZAK (Homo sapiens, UniProt Q9NYL2)
T28 construct: purchased DiscoveRx KINOMEscan
Outline: as §1

AURKA = target: T29, AURKA (Homo sapiens, UniProt O14965)
T29 construct: purchased DiscoveRx KINOMEscan
Outline: as §1

STK33 = target: T30, STK33 (Homo sapiens, UniProt Q9BYT3)
T30 construct: purchased DiscoveRx KINOMEscan
Outline: as §1

Cc1ccc(C2=Nc3cccnc3S(=O)(=O)c3ccccc32)cc1 [TBPT, 6-(p-tolyl)benzo[f] pyrido[2,3-b][1,4] thiazepine 11,11-dioxide]
remaining binding at 5 µM (CSNK2A1; 5 μM): 100% | remaining binding at 10 µM (CSNK2A1; 10 μM): 84% | remaining binding at 5 µM (ERK5; 5 μM): 100% | remaining binding at 10 µM (ERK5; 10 μM): 96% | remaining binding at 5 µM (CDK9; 5 μM): 100% | remaining binding at 10 µM (CDK9; 10 μM): 100% | remaining binding at 5 µM (HIPK1; 5 μM): 71% | remaining binding at 10 µM (HIPK1; 10 μM): 63% | remaining binding at 5 µM (OSR1; 5 μM): 100% | remaining binding at 10 µM (OSR1; 10 μM): 87% | remaining binding at 5 µM (PFTAIRE2; 5 μM): 100% | remaining binding at 10 µM (PFTAIRE2; 10 μM): 89% | remaining binding at 5 µM (EPHA2; 5 μM): 87% | remaining binding at 10 µM (EPHA2; 10 μM): 95% | remaining binding at 5 µM (SIK2; 5 μM): 84% | remaining binding at 10 µM (SIK2; 10 μM): 90% | remaining binding at 5 µM (IKK-alpha; 5 μM): 56% | remaining binding at 10 µM (IKK-alpha; 10 μM): 75% | remaining binding at 5 µM (MEK1; 5 μM): 100% | remaining binding at 10 µM (MEK1; 10 μM): 92% | remaining binding at 5 µM (ZAP70; 5 μM): 100% | remaining binding at 10 µM (ZAP70; 10 μM): 99% | remaining binding at 5 µM (CSNK1D; 5 μM): 98% | remaining binding at 10 µM (CSNK1D; 10 μM): 90% | remaining binding at 5 µM ([1]; 5 μM): 100% | remaining binding at 10 µM ([1]; 10 μM): 100% | remaining binding at 5 µM (EPHA6; 5 μM): 98% | remaining binding at 10 µM (EPHA6; 10 μM): 92% | remaining binding at 5 µM (YANK3; 5 μM): 88% | remaining binding at 10 µM (YANK3; 10 μM): 96% | remaining binding at 5 µM (AKT3; 5 μM): 100% | remaining binding at 10 µM (AKT3; 10 μM): 100% | remaining binding at 5 µM (FGFR4; 5 μM): 96% | remaining binding at 10 µM (FGFR4; 10 μM): 97% | remaining binding at 5 µM (SgK110; 5 μM): 100% | remaining binding at 10 µM (SgK110; 10 μM): 100% | remaining binding at 5 µM (RAF1; 5 μM): 100% | remaining binding at 10 µM (RAF1; 10 μM): 91% | remaining binding at 5 µM (TNIK; 5 μM): 84% | remaining binding at 10 µM (TNIK; 10 μM): 97% | remaining binding at 5 µM (TAOK1; 5 μM): 100% | remaining binding at 10 µM (TAOK1; 10 μM): 100% | remaining binding at 5 µM (TEC; 5 μM): 90% | remaining binding at 10 µM (TEC; 10 μM): 99% | remaining binding at 5 µM (WEE2; 5 μM): 100% | remaining binding at 10 µM (WEE2; 10 μM): 100% | remaining binding at 5 µM (CIT; 5 μM): 98% | remaining binding at 10 µM (CIT; 10 μM): 97% | remaining binding at 5 µM (PDPK1; 5 μM): 100% | remaining binding at 10 µM (PDPK1; 10 μM): 100% | remaining binding at 5 µM (PIK3CA(H1047L); 5 μM): 100% | remaining binding at 10 µM (PIK3CA(H1047L); 10 μM): 100% | remaining binding at 5 µM (AURKB; 5 μM): 98% | remaining binding at 10 µM (AURKB; 10 μM): 92% | remaining binding at 5 µM (ZAK; 5 μM): 94% | remaining binding at 10 µM (ZAK; 10 μM): 83% | remaining binding at 5 µM (AURKA; 5 μM): 100% | remaining binding at 10 µM (AURKA; 10 μM): 100% | remaining binding at 5 µM (STK33; 5 μM): 99% | remaining binding at 10 µM (STK33; 10 μM): 100%
